Patent publication US7566718B2, “Amine-linked pyridyl and phenyl substituted piperazine-piperidines with CXCR3 antagonist activity” (Schering Corporation, priority 2005, dated 2009)

biological target: T1, human CXCR3 (N-delta 4) (Homo sapiens, UniProt P49682); experiment: Human CXCR3 (N-delta 4) scintillation proximity assay (SPA), [125I] IP-10 binding to Ba/F3-hCXCR3 membranes; details: IC50 rating; [125I] IP-10 displacement, human CXCR3; read-out: IC50
T1 construct: CD8 leader (N); Flag tag; expressed in transfected cells; membrane preparation
T1 sequence (P49682 5-368 limits assumed): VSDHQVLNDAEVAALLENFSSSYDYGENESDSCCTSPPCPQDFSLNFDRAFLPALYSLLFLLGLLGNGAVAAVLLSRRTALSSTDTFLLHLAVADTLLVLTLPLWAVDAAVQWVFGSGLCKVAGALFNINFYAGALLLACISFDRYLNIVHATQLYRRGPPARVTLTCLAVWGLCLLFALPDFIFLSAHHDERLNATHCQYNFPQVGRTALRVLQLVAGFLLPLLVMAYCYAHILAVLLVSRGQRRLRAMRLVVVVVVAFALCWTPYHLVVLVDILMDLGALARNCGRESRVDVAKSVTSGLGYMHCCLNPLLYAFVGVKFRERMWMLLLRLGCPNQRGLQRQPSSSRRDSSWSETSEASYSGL
How it was run: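 Membranes from Ba/F3 cells expressing Flag-tagged hCXCR3 (N-delta 4), 2 μg/point, precoupled to WGA SPA beads. Binding of 25 pM [125I] IP-10 measured with titrated compounds, 3 hr at room temperature, in HEPES buffer with CaCl2, MgCl2, NaCl and 1.0% BSA; bound tracer read by scintillation counting.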

`C[C@@H]1CN(c2ncc(Nc3c(NCC(F)(F)F)c(=O)c3=O)cc2Cl)[C@@H](C)CN1C1CCN(C2CCCC(C(F)(F)F)C2)CC1` (stereo partly drawn) [Compound 145] was tested. Which IC50 did it give?
The IC50 was greater than 100 nM.

For `C[C@@H]1CN(c2ncc(Nc3c(NCC(F)(F)F)c(=O)c3=O)cc2Cl)[C@@H](C)CN1C1CCN(C2CCC(c3ccccc3)CC2)CC1` (stereo partly drawn) [Compound 146], which IC50 is on record?
Its IC50 is greater than 100 nM.

For `CC(=O)Nc1ccc(CN2CCC(N3C[C@H](C)N(c4ncc(Nc5c(NCC(F)(F)F)c(=O)c5=O)cc4Cl)C[C@H]3C)CC2)cc1` [Compound 147], which IC50 is on record?
Its IC50 is greater than 100 nM.

For `CC[C@H]1CN(c2ncc(N(Cc3ccc(C#N)cc3)c3c(C(C)C)c(=O)c3=O)cc2Cl)CCN1C1CCN(Cc2ccc(C#N)cc2)CC1` [Compound 148], which IC50 is on record?
The IC50 was greater than 100 nM.

With `CC[C@H]1CN(c2ncc(Nc3c(NC4CC4)c(=O)c3=O)cc2Cl)CCN1C1CCN([C@H](C(=O)NC)c2ccc(Cl)cc2)CC1` [Compound 149] as the compound, how does the IC50 read?
Its IC50 is greater than 100 nM.

For `C[C@@H]1CN(c2ncc(Nc3c(NCC(F)(F)F)c(=O)c3=O)cc2Cl)[C@@H](C)CN1C1CCN(CCC(C)(C)C)CC1` [Compound 150], which IC50 is on record?
Its IC50 is greater than 100 nM.

For `COC1CCCC(CN2CCC(N3C[C@H](C)N(c4ncc(Nc5c(NCC(F)(F)F)c(=O)c5=O)cc4Cl)C[C@H]3C)CC2)O1` (stereo partly drawn) [Compound 151], which IC50 is on record?
Its IC50 is greater than 100 nM.

How did the IC50 turn out when `C[C@@H]1CN(c2ncc(Nc3c(NCC(F)(F)F)c(=O)c3=O)cc2Cl)[C@@H](C)CN1C1CCN(Cc2nccs2)CC1` [Compound 152] was run?
Its IC50 is greater than 100 nM.

For `C[C@@H]1CN(c2ncc(Nc3c(NCC(F)(F)F)c(=O)c3=O)cc2Cl)[C@@H](C)CN1C1CCN(Cc2ccccc2O)CC1` [Compound 153], which IC50 is on record?
Its IC50 is greater than 100 nM.

Which IC50 does the source give for `COc1ccccc1CN1CCC(N2C[C@H](C)N(c3ncc(Nc4c(NCC(F)(F)F)c(=O)c4=O)cc3Cl)C[C@H]2C)CC1` [Compound 154] here?
The IC50 was greater than 100 nM.

How did the IC50 turn out when `C[C@@H]1CN(c2ncc(Nc3c(NCC(F)(F)F)c(=O)c3=O)cc2Cl)[C@@H](C)CN1C1CCN(Cc2ccccc2Cl)CC1` [Compound 155] was run?
The IC50 was greater than 100 nM.

Which IC50 does the source give for `C[C@@H]1CN(c2ncc(Nc3c(NCC(F)(F)F)c(=O)c3=O)cc2Cl)[C@@H](C)CN1C1CCN(Cc2csc3ccccc23)CC1` [Compound 156] here?
Its IC50 is greater than 100 nM.

Which IC50 does the source give for `C[C@@H]1CN(c2ncc(Nc3c(NCC(F)(F)F)c(=O)c3=O)cc2Cl)[C@@H](C)CN1C1CCN(Cc2cccc(C(F)(F)F)c2)CC1` [Compound 157] here?
The IC50 was greater than 100 nM.

For `C[C@@H]1CN(c2ncc(Nc3c(NCC(F)(F)F)c(=O)c3=O)cc2Cl)[C@@H](C)CN1C1CCN(Cc2cccc(Cl)c2Cl)CC1` [Compound 158], which IC50 is on record?
Its IC50 is greater than 100 nM.

`C[C@@H]1CN(c2ncc(Nc3c(NCC(F)(F)F)c(=O)c3=O)cc2Cl)[C@@H](C)CN1C1CCN(Cc2cc(Cl)cc(Cl)c2)CC1` [Compound 159] was tested. Which IC50 did it give?
The IC50 was greater than 100 nM.

With `C[C@@H]1CN(c2ncc(Nc3c(NCC(F)(F)F)c(=O)c3=O)cc2Cl)[C@@H](C)CN1C1CCN(CC(c2ccccc2)c2ccccc2)CC1` [Compound 160] as the compound, how does the IC50 read?
The IC50 was greater than 100 nM.

Which IC50 does the source give for `C[C@@H]1CN(c2ncc(Nc3c(NCC(F)(F)F)c(=O)c3=O)cc2Cl)[C@@H](C)CN1C1CCN(Cc2ccc(Oc3ccccc3)cc2)CC1` [Compound 161] here?
Its IC50 is greater than 100 nM.

How did the IC50 turn out when `C[C@@H]1CN(c2ncc(Nc3c(NCC(F)(F)F)c(=O)c3=O)cc2Cl)[C@@H](C)CN1C1CCN(C2CCCC2)CC1` [Compound 162] was run?
Its IC50 is greater than 100 nM.

`CC1CCCC(N2CCC(N3C[C@H](C)N(c4ncc(Nc5c(NCC(F)(F)F)c(=O)c5=O)cc4Cl)C[C@H]3C)CC2)C1` (stereo partly drawn) [Compound 163] was tested. Which IC50 did it give?
Its IC50 is greater than 100 nM.

For `Cc1cc(Nc2c(NCC(F)(F)F)c(=O)c2=O)cnc1N1C[C@@H](C)N(C2CCN(C(=O)c3ccc(C(F)(F)F)cc3)CC2)C[C@@H]1C` [Compound 164], which IC50 is on record?
Its IC50 is greater than 100 nM.

For `Cc1cc(Nc2c(NCC(F)(F)F)c(=O)c2=O)cnc1N1C[C@@H](C)N(C2CCN(C(=O)c3c(C)noc3C)CC2)C[C@@H]1C` [Compound 165], which IC50 is on record?
Its IC50 is greater than 100 nM.

For `Cc1cc(Nc2c(NCC(F)(F)F)c(=O)c2=O)cnc1N1C[C@@H](C)N(C2CCN(C(=O)C3Cc4ccccc4C3)CC2)C[C@@H]1C` [Compound 166], which IC50 is on record?
The IC50 was greater than 100 nM.

`CC[C@H]1CN(c2ncc(Nc3c(NC4CC4)c(=O)c3=O)cc2Cl)CCN1C1CCN([C@@H](C(N)=O)c2ccc(Cl)cc2)CC1` [Compound 167] was tested. Which IC50 did it give?
Its IC50 is greater than 100 nM.

Which IC50 does the source give for `CC(C)C1CCC(N2CCC(N3C[C@H](C)N(c4ncc(Nc5c(NCC(F)(F)F)c(=O)c5=O)cc4Cl)C[C@H]3C)CC2)CC1` (stereo partly drawn) [Compound 169] here?
Its IC50 is greater than 100 nM.

How did the IC50 turn out when `CCC(C)CN1CCC(N2C[C@H](C)N(c3ncc(Nc4c(NCC(F)(F)F)c(=O)c4=O)cc3Cl)C[C@H]2C)CC1` (stereo partly drawn) [Compound 170] was run?
The IC50 was greater than 100 nM.

Which IC50 does the source give for `CCC(C)(C)C1CCC(N2CCC(N3C[C@H](C)N(c4ncc(Nc5c(NCC(F)(F)F)c(=O)c5=O)cc4Cl)C[C@H]3C)CC2)C1` (stereo partly drawn) [Compound 171] here?
The IC50 was greater than 100 nM.

With `C[C@@H]1CN(c2ncc(Nc3c(NCC(F)(F)F)c(=O)c3=O)cc2Cl)[C@@H](C)CN1C1CCN(C2CCCC(C(F)(F)F)C2)CC1` (stereo partly drawn) [Compound 172] as the compound, how does the IC50 read?
Its IC50 is greater than 100 nM.

How did the IC50 turn out when `C[C@@H]1CN(c2ncc(Nc3c(NCC(F)(F)F)c(=O)c3=O)cc2Cl)[C@@H](C)CN1C1CCN(C2CCC(c3ccccc3)CC2)CC1` (stereo partly drawn) [Compound 173] was run?
The IC50 was greater than 100 nM.

With `CC1CCCC(N2CCC(N3C[C@H](C)N(c4ncc(Nc5c(NCC(F)(F)F)c(=O)c5=O)cc4Cl)C[C@H]3C)CC2)C1` (stereo partly drawn) [Compound 176] as the compound, how does the IC50 read?
The IC50 was greater than 100 nM.

Which IC50 does the source give for `CC[C@H]1CN(c2ncc(NC(C)=O)cc2Cl)CCN1C1CCN(Cc2ccc(Cl)cc2F)CC1` [Compound 177] here?
Its IC50 is less than 25 nM.

`CC[C@H]1CN(c2ncc(NC(=O)C(C)C)cc2Cl)CCN1C1CCN(Cc2ccc(Cl)cc2F)CC1` [Compound 178] was tested. Which IC50 did it give?
Its IC50 is less than 25 nM.

`CC[C@H]1CN(c2ncc(-n3cn[nH]c3=O)cc2Cl)CCN1C1CCN(Cc2ccc(Cl)cc2F)CC1` [Compound 179] was tested. Which IC50 did it give?
Its IC50 is less than 25 nM.

How did the IC50 turn out when `CC[C@H]1CN(c2ncc(NC(=O)C3CC3)cc2Cl)CCN1C1CCN(Cc2ccc(Cl)cc2F)CC1` [Compound 180] was run?
Its IC50 is less than 25 nM.

For `CC(=O)Nc1cnc(N2CCN(C3CCN(Cc4ccc(Cl)cc4)CC3)[C@@H](C)C2)c(Cl)c1` [Compound 181], which IC50 is on record?
Its IC50 is less than 25 nM.

`CC[C@H]1CN(c2ncc(NC(=O)NC)cc2Cl)CCN1C1CCN(Cc2ccc(Cl)cc2F)CC1` [Compound 182] was tested. Which IC50 did it give?
The IC50 was less than 25 nM.

`CCNC(=O)Nc1cnc(N2CCN(C3CCN(Cc4ccc(Cl)cc4F)CC3)[C@@H](CC)C2)c(Cl)c1` [Compound 183] was tested. Which IC50 did it give?
Its IC50 is less than 25 nM.

How did the IC50 turn out when `C[C@H]1CN(c2ncc(NC(=O)C3CC3)cc2Cl)CCN1C1CCN(Cc2ccc(Cl)cc2)CC1` [Compound 184] was run?
Its IC50 is less than 25 nM.

For `CC[C@H]1CN(c2ncc(NC(=O)NC3CC3)cc2Cl)CCN1C1CCN(Cc2ccc(Cl)cc2F)CC1` [Compound 185], which IC50 is on record?
The IC50 was less than 25 nM.

`CC[C@H]1CN(c2ncc(NC(N)=O)cc2Cl)CCN1C1CCN(Cc2ccc(Cl)cc2F)CC1` [Compound 186] was tested. Which IC50 did it give?
Its IC50 is 25 to 100 nM.

`CCC(=O)Nc1cnc(N2CCN(C3CCN(Cc4ccc(Cl)cc4)CC3)[C@@H](C)C2)c(Cl)c1` [Compound 187] was tested. Which IC50 did it give?
The IC50 was 25 to 100 nM.

With `CC[C@H]1CN(c2ncc(NC(=O)NN)cc2Cl)CCN1C1CCN(Cc2ccc(Cl)cc2F)CC1` [Compound 188] as the compound, how does the IC50 read?
The IC50 was 25 to 100 nM.

For `CC[C@H]1CN(c2ncc(NC(=O)Oc3ccccc3)cc2Cl)CCN1C1CCN(Cc2ccc(Cl)cc2F)CC1` [Compound 189], which IC50 is on record?
The IC50 was 25 to 100 nM.

`CCNC(=O)Nc1cnc(N2CCN(C3CCN(Cc4ccc(Cl)cc4)CC3)[C@@H](C)C2)c(Cl)c1` [Compound 190] was tested. Which IC50 did it give?
Its IC50 is 25 to 100 nM.

Which IC50 does the source give for `CCNC(=O)Nc1cnc(N2C[C@H](C)N(C3CCN(Cc4ccc(Cl)cc4F)CC3)C[C@H]2C)c(Cl)c1` [Compound 191] here?
The IC50 was greater than 100 nM.

With `CCNC(=O)Nc1ccc(N2CCN(C3CCN(Cc4ccc(Cl)cc4)CC3)[C@@H](CC)C2)c(Cl)c1` [Compound 192] as the compound, how does the IC50 read?
The IC50 was greater than 100 nM.
